Reference: EP1147080B1 (Wyeth Holdings Corporation, priority 1999, dated 2000)
Read-outs that look alike come from different tables or passages of the source.

What was measured:
MMP-13 = MMP-13 (Homo sapiens, UniProt P45452); assay: MMP-13 inhibition (thiopeptide or fluorescent peptide substrate); format: biochemical; conditions: for MMP13 / inhibition at 10 µM: % @ 10µM per footnote a; for inhibition at 10 µM / inhibition at 1 µM / IC50: read-out: MMP13; for inhibition at 1 µM: % at 1 um (specified in cell)
From the text: Alternatively, a fluorescent peptide substrate is used.

MMP-1 = target: T1, MMP-1 (Homo sapiens, UniProt P03956); assay: MMP-1 inhibition (thiopeptide or fluorescent peptide substrate); conditions: for inhibition at 10 µM: read-out: MMP1
T1 sequence (P03956 100-469): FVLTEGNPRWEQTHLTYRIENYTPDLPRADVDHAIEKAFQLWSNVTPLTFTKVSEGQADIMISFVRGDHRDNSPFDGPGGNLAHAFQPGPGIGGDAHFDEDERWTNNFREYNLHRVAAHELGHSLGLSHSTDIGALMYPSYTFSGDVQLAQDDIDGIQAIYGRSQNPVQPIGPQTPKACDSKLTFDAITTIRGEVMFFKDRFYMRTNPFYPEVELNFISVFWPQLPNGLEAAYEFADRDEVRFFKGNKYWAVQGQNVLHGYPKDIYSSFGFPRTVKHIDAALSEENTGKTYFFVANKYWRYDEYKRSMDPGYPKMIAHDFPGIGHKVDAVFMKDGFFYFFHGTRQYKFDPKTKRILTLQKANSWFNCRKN

MMP-9 = MMP-9 (Homo sapiens, UniProt P14780); assay: MMP-9 inhibition (thiopeptide or fluorescent peptide substrate); conditions: for inhibition at 10 µM: read-out: MMP9
Sequence of MMP-9 (P14780 94-707): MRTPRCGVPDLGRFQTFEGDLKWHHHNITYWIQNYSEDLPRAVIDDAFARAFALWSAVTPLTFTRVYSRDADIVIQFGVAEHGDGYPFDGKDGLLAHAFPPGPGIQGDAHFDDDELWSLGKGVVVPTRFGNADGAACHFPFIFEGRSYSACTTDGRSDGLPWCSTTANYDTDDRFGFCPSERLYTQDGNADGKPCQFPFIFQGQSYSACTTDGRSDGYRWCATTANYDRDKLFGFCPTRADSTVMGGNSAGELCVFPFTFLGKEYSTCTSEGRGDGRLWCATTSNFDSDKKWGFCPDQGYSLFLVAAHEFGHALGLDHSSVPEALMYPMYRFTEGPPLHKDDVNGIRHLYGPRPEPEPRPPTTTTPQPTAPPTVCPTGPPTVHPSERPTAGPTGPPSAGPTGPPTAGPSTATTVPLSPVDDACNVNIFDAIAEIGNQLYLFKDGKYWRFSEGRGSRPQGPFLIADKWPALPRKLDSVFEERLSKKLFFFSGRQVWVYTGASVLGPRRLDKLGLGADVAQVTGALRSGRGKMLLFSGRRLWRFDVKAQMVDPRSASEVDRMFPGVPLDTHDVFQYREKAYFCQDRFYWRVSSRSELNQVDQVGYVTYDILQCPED
Method: The enzyme activity is measured by the rate of the color increase. The thiopeptide substrate is made up fresh as a 20 mM stock in 100% DMSO and the DTNB is dissolved in 100% DMSO as a 100 mM stock and stored in the dark at room temperature. Both the substrate and DTNB are diluted together to 1 mM with substrate buffer (50 mM HEPES pH 7.5, 5 mM CaCl2) before use. The stock of enzyme is diluted with buffer (50 mM HEPES, pH 7.5, 5 mM CaCl2, 0.02% Brij) to the desired final concentration.
Alternatively, a fluorescent peptide substrate is used. In this test procedure, the peptide substrate contains a fluorescent group and a quenching group. Upon cleavage of the substrate by an MMP, the fluorescence that is generated is quantitated on the fluorescence plate reader. The assay is run in HCBC assay buffer (50mM HEPES, pH 7.0, 5 mM Ca^+2, 0.02% Brij, 0.5% Cysteine), with human recombinant MMP-1, MMP-9, or MMP-13. The substrate is dissolved in methanol and stored frozen in 1 mM aliquots. For the assay, substrate and enzymes are diluted in HCBC buffer to the desired concentrations. Compounds are added to the 96 well plate containing enzyme and the reaction is started by the addition of substrate.
For either the thiopeptide or fluorescent peptide test procedures, the slope of the line is calculated and represents the reaction rate. […] The mean (x±sem) of the control rate is calculated and compared for statistical significance (p<0.05) with drug-treated rates using Dunnett's multiple comparison test.

THP-1 cells = assay: Human monocytic THP-1 cell differentiation assay for soluble proteins (THP soluble protein assay), LPS-stimulated, TNF-α ELISA; format: cell-based; conditions: Homo sapiens, THP-1; at 3 uM; percent change from vehicle positive control; read-out: TNFalpha at 3 uM) THP (percent change)
From the text: Mitogenic stimulation of THP-1 cells cause differentiation into macrophage like cells with concomitant secretion of tumor necrosis factor (TNF-a) and TNF receptor (TNF-R p75/80 and TNF-R p55/60) and Interleukin-8 (IL-8), among other proteins. In addition, non-stimulated THP-1 cells shed both the p75/80 and the p55/60 receptors over time. The release of membrane bound TNF-a and possibly TNF-R p75/80 and TNF-R p55/60, but not IL-8, is mediated by an enzyme called TNF-α converting enzyme or TACE.
THP-1 cells (from ATCC) are a human monocytic cell line which were obtained from the peripheral blood of a person with acute monocytic leukemia. They can be grown in culture and differentiated into macrophage like cells by stimulation with mitogens.
Each vial of cells are cultured for about two weeks prior to being used for an assay and then are used for only 4 to 6 weeks to screen compounds.
Cell exposure to DMSO was limited to 0.1 % final concentration. […] Compounds can be evaluated for their effect on basal (non-stimulated) shedding of the receptors by replacing the LPS with […] of THP-1 media. Plates are placed into an incubator set at 5% CO2 and at 37°C. After 4 hours of incubation, […] of tissue culture supernatant (TCS) is removed for use in an TNF-α ELISA. Following 24 hours of incubation, […] of TCS is removed and used for analysis in TNF-R p75/80, TNF-R p55/60 and IL-8 ELISAs.
In addition, at the 24 hours timepoint, and the cells for each treatment group are collected by resuspension in 500 µl/well of THP-1 media and transferred into a FACS tube. […] The samples are run on a Becton Dickinson FaxCaliber FLOW cytometry machine and the amount of dye taken up by each cell is measured in the high red wavelength (FL3). Only cells with compromised membranes (dead or dying) can take up PI. The percent of live cells is calculated by the number of cells not stained with PI, divided by the total number of cells in the sample. The viability values calculated for the drug treated groups were compared to the viability value calculated for the vehicle treated mitogen stimulated group ("vehicle positive control") to determine the "percent change from control". This "percent change from control" value is an indicator of drug toxicity.
The quantity of soluble TNF-α, TNF-R p75/80 and TNF-R p55/60 and IL-8 in the TCS of the THP-1 cell cultures are obtained with commercially available ELISAs from R&D Systems, by extrapolation from a standard curve generated with kit standards. The number of cells that either take up or exclude PI are measured by the FLOW cytometry machine and visualized by histograms using commercially available Cytologic software for each treatment group including all controls.
Biological variability in the magnitude of the response of THP-1 cell cultures requires that experiments be compared on the basis of percent change from "vehicle positive control" for each drug concentration. Percent change in each soluble protein evaluated from the "vehicle positive control" was calculated for each compound concentration with the following formula: % Change =(pg/ml (compound) - pg/ml (veh pos control))/(pg/ml (veh pos control) - pg/ml (veh neg control))x 100 [formula]
For the soluble protein (TNF-a, p75/80, p55/60, IL-8) studies under stimulated conditions, the mean pg/ml of duplicate wells were determined and the results expressed as percent change from "vehicle positive control". For the soluble protein (p75/80 and p55/60 receptors) studies under non-stimulated conditions, the mean pg/ml of duplicate wells were determined and the results expressed as percent change from […] utilizing the following formula: % Change =(pg/ml (compound neg control) - pg/ml (veh neg control))/(pg/ml (veh neg control))X 100 [formula]
IC50 values for each compound are calculated by non-linear regression analysis using customized software utilizing the JUMP statistical package.

[1] = target: TNF-α converting enzyme (TACE) (Homo sapiens, UniProt P78536); assay: Test procedure for measuring TACE inhibition (fluorescent peptidyl substrate); format: biochemical; conditions: for inhibition at 10 µM: % @ 10µM per footnote a, read-out: TACE IC50; for IC50: second table, IC50 (nM) per footnote a
Sequence of TNF-α converting enzyme (TACE) (P78536 215-824): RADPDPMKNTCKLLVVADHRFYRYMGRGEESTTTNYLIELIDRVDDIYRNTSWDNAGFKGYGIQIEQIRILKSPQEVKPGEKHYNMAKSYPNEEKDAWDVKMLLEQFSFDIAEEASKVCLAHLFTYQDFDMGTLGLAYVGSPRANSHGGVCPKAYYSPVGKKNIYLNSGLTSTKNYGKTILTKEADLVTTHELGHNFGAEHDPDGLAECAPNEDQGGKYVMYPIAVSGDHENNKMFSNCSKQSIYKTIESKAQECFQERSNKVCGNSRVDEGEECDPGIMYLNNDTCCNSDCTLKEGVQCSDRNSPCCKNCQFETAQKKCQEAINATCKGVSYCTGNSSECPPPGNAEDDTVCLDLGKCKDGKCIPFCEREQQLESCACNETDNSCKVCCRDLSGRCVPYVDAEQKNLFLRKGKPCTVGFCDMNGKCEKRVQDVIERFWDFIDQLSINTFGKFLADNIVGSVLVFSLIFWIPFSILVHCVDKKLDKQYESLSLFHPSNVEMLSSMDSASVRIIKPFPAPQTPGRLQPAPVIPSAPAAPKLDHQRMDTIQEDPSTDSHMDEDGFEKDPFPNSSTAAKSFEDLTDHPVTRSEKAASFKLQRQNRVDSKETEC

CC#CCOc1ccc([S+]([O-])C(C(=O)NO)c2ccccc2)cc1 (single isomer, unassigned) [Example 113, S-2-{[4-(2-butynyloxy)phenyl]sulfinyl}-2-phenyl-N-hydroxyacetamide]
MMP13 (MMP-13): 59% | MMP1 (MMP-1): 6.20% | MMP9 (MMP-9): 25.70%

CC#CCOc1ccc(SC(C(=O)NO)c2ccc(F)cc2)cc1 (stereo not shown) [Example 95]
inhibition at 3 µM (THP-1 cells): -7% | inhibition at 10 µM (MMP-13): 26% | inhibition at 10 µM (MMP-1): 9% | inhibition at 10 µM (MMP-9): 5.7%

CC#CCOc1ccc(SC(C(=O)NO)c2ccc(OC)cc2)cc1 (stereo not shown) [Example 76, 2-{[4-(2-butynyloxy)phenyl]sulfanyl}-N-hydroxy-2-(4-methoxyphenyl) acetamide]
inhibition at 3 µM (THP-1 cells): 15% | inhibition at 10 µM (MMP-13): 26.8% | inhibition at 10 µM (MMP-1): 3% | inhibition at 10 µM (MMP-9): 21.6%

CC#CCOc1ccc([S+]([O-])C(C(=O)NO)c2ccc(F)cc2)cc1 (stereo not shown) [Example 96]
MMP13 (MMP-13): 53.40% | MMP1 (MMP-1; % @ 10µM per footnote a): 18.40% | MMP9 (MMP-9; % @ 10µM per footnote a): 0%

CC#CCOc1ccc(S(=O)(=O)C(C(=O)NO)c2ccc(-c3cccs3)cc2)cc1 (stereo not shown) [Example 91, 2-{[4-(2-butynyloxy)phenyl]sulfonyl}-N-hydroxy-2-[4-(2-thienyl)phenyl]acetamide]
inhibition at 10 µM [1]: 48% | inhibition at 3 µM (THP-1 cells): 2% | inhibition at 10 µM (MMP-13): 35% | inhibition at 10 µM (MMP-1): 10%

CC#CCOc1ccc([S+]([O-])C(C(=O)NO)c2ccc3ccccc3c2)cc1 (stereo not shown) [Example 115, 2-{[4-(2-butynyloxy)phenyl]sulfinyl}-2-(2-naphthyl)-N-hydroxyacetamide]
IC50 [1]: 141 nM | inhibition at 3 µM (THP-1 cells): 11% | inhibition at 1 µM (MMP-13): 45.1% | inhibition at 10 µM (MMP-1): 4.11%

CC#CCOc1ccc(S(=O)(=O)C(CCc2ccc(OCCN3CCCCC3)cc2)C(=O)NO)cc1 (stereo not shown) [Example 71]
inhibition at 3 µM (THP-1 cells): 11% | IC50 (MMP-13): 894 nM | IC50 (MMP-1): 10000 nM | IC50 (MMP-9): 2510 nM

CC#CCOc1ccc(S(=O)(=O)C(C(=O)NO)c2ccc(OCC)cc2)cc1 (stereo not shown) [Example 102]
IC50 [1]: 82 nM | inhibition at 3 µM (THP-1 cells): 10% | inhibition at 10 µM (MMP-13): 71% | inhibition at 10 µM (MMP-1): 26%

CC#CCOc1ccc([S+]([O-])[C@H](C(=O)NO)c2cccc(Br)c2)cc1 (single isomer, unassigned) [Example 105]
IC50 [1]: 106 nM | inhibition at 3 µM (THP-1 cells): -4% | inhibition at 10 µM (MMP-13): 32% | inhibition at 10 µM (MMP-1): 9%

CC#CCOc1ccc(S(=O)(=O)C(C(=O)NO)C2CCCCC2)cc1 (stereo not shown) [Example 75, 2-{[4-(2-butynyloxy)phenyl]sulfonyl}-2-cyclohexyl-N-hydroxyacetamide]
inhibition at 3 µM (THP-1 cells): 39% | IC50 (MMP-13): 708 nM | inhibition at 10 µM (MMP-1): 34.6% | inhibition at 10 µM (MMP-9): 68.2%

CC#CCOc1ccc(SC(C(=O)NO)c2ccccc2OC)cc1 (stereo not shown) [Example 98, 2-(2-methoxyphenyl)-2-{[4-(2-butynyloxy)phenyl]sulfanyl}-N-hydroxyacetamide]
IC50 [1]: 464 nM | inhibition at 3 µM (THP-1 cells): 1% | inhibition at 10 µM (MMP-13): 59% | inhibition at 10 µM (MMP-1): 23%

CC#CCOc1ccc([S+]([O-])[C@@H](C(=O)NO)c2ccc(OC)cc2)cc1 (single isomer, unassigned) [Example 77]
MMP1 (MMP-1; % @ 10µM per footnote a): 17.50% | MMP9 (MMP-9): 45.40%

CC#CCOc1ccc(SC(C(=O)NO)c2cccc3ccccc23)cc1 (stereo not shown) [Example 92, 2-{[4-(2-Butynyloxy)phenyl]sulfanyl}-N-hydroxy-2-(1-naphthyl)acetamide]
IC50 [1]: 931 nM | inhibition at 3 µM (THP-1 cells): -7% | inhibition at 10 µM (MMP-13): 25% | inhibition at 10 µM (MMP-1): 8%

CC#CCOc1ccc(S(=O)(=O)C(C(=O)NO)c2ccc(OC)cc2)cc1 (stereo not shown) [Example 79, 2-{[4-(2-butynyloxy)phenyl]sulfonyl}-N-hydroxy-2-(4-methoxyphenyl) acetamide]
IC50 [1]: 48.1 nM | inhibition at 10 µM (MMP-13): 56.8% | inhibition at 10 µM (MMP-1): 23.3% | inhibition at 10 µM (MMP-9): 27.3%

CC#CCOc1ccc([S+]([O-])C(C(=O)NO)c2ccc(Cl)cc2)cc1 (mixture of isomers) [Example 81, 2-{[4-(2-butynyloxy)phenyl]sulfinyl}-2-(4-chlorophenyl) N-hydroxyacetamide]
IC50 [1]: 223 nM | inhibition at 3 µM (THP-1 cells): 6% | inhibition at 1 µM (MMP-13): 21.6% | inhibition at 10 µM (MMP-1): 30.5%

CC#CCOc1ccc([S+]([O-])C(C(=O)NO)C(C)C)cc1 (stereo not shown) [Example 108, R-2-{[4-(2-butynylaxy)phenyl]sulfinyl}-2-isopropyl-N-hydroxyacetamide]
IC50 (MMP-1): 6480 nM | IC50 (MMP-9): 399 nM

CC#CCOc1ccc(S(=O)(=O)C(C(=O)NO)C2CCN(Cc3ccc(OC)cc3)CC2)cc1 (stereo not shown) [Example 119, 2-{[4-(2-butynyloxy)phenyl]sulfonyl}-N-hydroxy-2-[1-(4-methoxybenzyl)-4-piperidinyl] acetamide]
IC50 [1]: 263 nM | inhibition at 3 µM (THP-1 cells): 30% | inhibition at 10 µM (MMP-13): 50% | inhibition at 10 µM (MMP-1): 9%

CC#CCOc1ccc(SC(C(=O)NO)c2ccc(Br)cc2)cc1 (stereo not shown) [Example 85, 2-(4-bromophenyl)-2-{[4-(2-butynyloxy)phenyl]sulfanyl}-N-hydroxyacetamide]
IC50 [1]: 391 nM | inhibition at 3 µM (THP-1 cells): -10% | inhibition at 10 µM (MMP-13): 30.5% | inhibition at 10 µM (MMP-1): 6.8%

CC#CCOc1ccc(S(=O)(=O)C(C(=O)NO)C2CCNCC2)cc1 (stereo not shown) [Example 118, 2-{[4-(2-butynyloxy)phenyl]sulfonyl}-N-hydroxy-2-(4-piperidinyl) acetamide]
IC50 [1]: 299 nM | inhibition at 3 µM (THP-1 cells): 24% | inhibition at 10 µM (MMP-13): 69.5% | inhibition at 10 µM (MMP-1): 23.8%

CC#CCOc1ccc([S+]([O-])C(C(=O)NO)c2cccc3ccccc23)cc1 (stereo not shown) [Example 93, 2-{[4-(2-Butynyloxy)phenyl]sulfinyl}-N-hydroxy-2-(1-naphthyl)acetamide]
inhibition at 10 µM [1]: 15.6% | inhibition at 3 µM (THP-1 cells): -1% | inhibition at 10 µM (MMP-13): 17% | inhibition at 10 µM (MMP-1): 7%

CC#CCOc1ccc(S(=O)(=O)C(C(=O)NO)C2CCN(C(=O)OC(C)(C)C)CC2)cc1 (stereo not shown) [Example 117, Tert-butyl-4-[1-{[4-(2-butynyloxy)phenyl]sulfonyl}-2-(hydroxyamino)-2-oxoethyl]-1-piperidine carboxylate]
IC50 [1]: 190 nM | inhibition at 3 µM (THP-1 cells): 50% | inhibition at 10 µM (MMP-13): 52% | inhibition at 10 µM (MMP-1): 22%

CC#CCOc1ccc([S+]([O-])[C@@H](C(=O)NO)c2cccc(Br)c2)cc1 (single isomer, unassigned) [Example 104]
IC50 [1]: 63 nM | inhibition at 3 µM (THP-1 cells): 4% | inhibition at 10 µM (MMP-13): 54% | inhibition at 10 µM (MMP-1): 6%
